Measured values: BigSolDB 2.1

O=[N+]([O-])c1ncccc1O
solubility (mole fraction)
Details | in THF | in acetone | in acetonitrile | in ethanol | in ethyl acetate | in isopropanol | in methanol | in n-hexane | in n-propanol | in water
278.15 K | 0.213 | 0.157 | 0.113 | 0.0236 | 0.108 | 0.0158 | 0.0395 | 0.00055 | 0.0299 | 0.00083
283.15 K | 0.243 | 0.184 | 0.141 | 0.0334 | 0.128 | 0.0226 | 0.0551 | 0.00077 | 0.0391 | 0.00107
288.15 K | 0.274 | 0.219 | 0.171 | 0.0482 | 0.151 | 0.0318 | 0.0807 | 0.00105 | 0.0523 | 0.00149
293.15 K | 0.312 | 0.259 | 0.207 | 0.0653 | 0.181 | 0.0442 | 0.111 | 0.00144 | 0.0716 | 0.0021
298.15 K | 0.35 | 0.304 | 0.247 | 0.0924 | 0.215 | 0.0621 | 0.153 | 0.00192 | 0.0947 | 0.00283
303.15 K | 0.396 | 0.354 | 0.299 | 0.128 | 0.254 | 0.0863 | 0.206 | 0.00266 | 0.127 | 0.00393
308.15 K | 0.446 | 0.41 | 0.359 | 0.173 | 0.301 | 0.12 | 0.271 | 0.00373 | 0.17 | 0.00544
313.15 K | 0.502 | 0.474 | 0.428 | 0.232 | 0.357 | 0.165 | 0.352 | 0.00522 | 0.224 | 0.00753
318.15 K | 0.57 | 0.544 | 0.502 | 0.306 | 0.423 | 0.224 | 0.446 | 0.00736 | 0.292 | 0.0109
